Laboratory results as given in patent US8629158B2, “Azabicycloalkane-indole and azabicycloalkane-pyrrolo-pyridine MCH-1 antagonists, methods of making, and use thereof” (Albany Molecular Research, Inc., priority 2009, dated 2014).
Counter-ions that a name gives are not always drawn. Like-named read-outs stand apart in the source and are kept apart here.

Legend:
[1] = target: human MCH-1 receptor (Homo sapiens (Human), UniProt Q99705); assay: Binding Assay for Human Melanin-Concentrating Hormone (MCH-1) Receptor (radioligand displacement, CHO-K1 membranes); conditions: for Ki: membranes from CHO-K1 cells expressing human MCH1 receptor, [3H]-labeled radioligand, Ki from IC50 by Cheng Prusoff
human MCH-1 receptor, sequence (Q99705 whole entry): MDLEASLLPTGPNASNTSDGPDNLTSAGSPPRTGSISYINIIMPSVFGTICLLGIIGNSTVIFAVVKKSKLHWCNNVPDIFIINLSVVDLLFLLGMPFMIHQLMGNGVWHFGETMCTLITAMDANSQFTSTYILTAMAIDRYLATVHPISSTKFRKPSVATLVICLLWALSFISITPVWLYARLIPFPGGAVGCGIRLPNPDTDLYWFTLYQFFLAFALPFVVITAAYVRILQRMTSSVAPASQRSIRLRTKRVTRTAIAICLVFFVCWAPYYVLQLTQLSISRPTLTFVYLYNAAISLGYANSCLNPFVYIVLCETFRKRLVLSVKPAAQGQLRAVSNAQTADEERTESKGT
Method: Evaluation of the affinity of compounds for the human MCH-1 receptor was accomplished using 4-(3,4,5-tritritiumbenzyloxy)-1-(1-(2-(pyrrolidin-1-yl)ethyl)-1H-indazol-5-yl)pyridin-2(1H)-one and membranes prepared from stable CHO-K1 cells expressing the human MCH1 receptor obtained from Euroscreen (Batch 1138). Cell membrane homogenates (8.92 μg protein) were incubated for 60 min at 25° C. with […] of the [^3H]-labeled compound in the absence or presence of the test compound in 50 mM Tris-HCl buffer, pH 7.4. Nonspecific binding was determined in the presence of 50 μM 1-(5-(4-cyanophenyl)bicyclo[3.1.0]hexan-2-yl)-3-(4-fluoro-3-(trifluoromethyl)phenyl)-1-(3-(4-methylpiperazin-1-yl)propyl)urea. Following incubation, the samples were filtered rapidly under vacuum through Skatron 11731 filters, pre-soaked in 0.5% polyethylenimine, and washed with ice-cold 50 mM Tris-HCl buffer, pH 7.4, (wash setting 9,9,0) using a Skatron cell harvester. The filters were counted for radioactivity in a liquid scintillation counter (Tri-Carb 2100TR, Packard) using a scintillation cocktail (Ultima Gold MV, Perkin Elmer).
The results are expressed as a percent inhibition of the control radioligand specific binding. The IC50 value (concentration causing a half-maximal inhibition of control specific binding) and Hill coefficient (nH) were determined by non-linear regression analysis of the competition curve using Hill equation curve fitting. The inhibition constant (Ki) was calculated from the Cheng Prusoff equation: (Ki=IC50/(1+(L/KD)), where L=concentration of radioligand in the assay, and KD=affinity of the radioligand for the receptor.

| SMILES | melting point | Ki ([1]; read-out: MCH-1 Ki) | Ki ([1]; MCH-1 Ki (nM)) | other results |
| --- | --- | --- | --- | --- |
| O=c1cc(OCc2ccc(F)cn2)ccn1-c1ccc2c3c([nH]c2c1)CC1CCC3N1 (centres unmarked) (as salt: hydrochloride) [Example 9, 4-((5-Fluoropyridin-2-yl)methoxy)-1-(5,6,7,8,9,10-hexahydro-7,10-iminocyclohept[b]indol-3-yl)pyridin-2(1H)-one dihydrochloride] | 205 to 211 °C (dec.) | – | – | – |
| Cl.Cn1c2c(c3ccc(-n4ccc(OCc5ccccn5)cc4=O)cc31)C1CCC(C2)N1 (centres unmarked) [Example 23, 1-(5-Methyl-6,7,8,9,10-hexahydro-7,10-iminocyclohept[b]indol-3-yl)-4-((pyridin-2-yl)methoxy)pyridin-2(1H)-one hydrochloride] | 175 to 195 °C | 17 nM | – | – |
| Cl.Cn1c2c(c3ccc(-n4ccc(OCc5ccccc5)cc4=O)nc31)C1CCCC(C2)N1 (centres unmarked) [Example 41, 4-(Benzyloxy)-1-(11-methyl-5,6,7,8,9,10-hexahydro-5,9-imino-11H-cycloocta[4,5]pyrrolo[2,3-b]pyridin-2-yl)pyridin-2(1H)-one hydrochloride] | 191 to 206 °C | 30 nM | – | – |
| Cl.Cn1c2c(c3ccc(-n4ccc(OCc5ccc(F)cn5)cc4=O)nc31)C1CCCC(C2)N1 (centres unmarked) [Example 40, 4-((5-Fluoropyridin-2-yl)methoxy)-1-(11-methyl-5,6,7,8,9,10-hexahydro-5,9-imino-11H-cycloocta[4,5]pyrrolo[2,3-b]pyridin-2-yl)pyridin-2(1H)-one hydrochloride] | 170 to 180 °C | 49 nM | – | – |
| Cl.Cn1c2c(c3ccc(-n4ccc(-c5ccc(C(F)(F)F)nc5)cc4=O)cc31)C1CCCC(C2)N1 (centres unmarked) [Example 13, 1-(5-Methyl-6,7,8,9,10,11-hexahydro-7,11-imino-5H-cyclooct[b]indol-3-yl)-4-(6-(trifluoromethyl)pyridin-3-yl)pyridin-2(1H)-one hydrochloride] | 265 to 274 °C (dec.) | 46.3 nM | – | – |
| Cl.Cn1c2c(c3ccc(-n4ccc(-c5ccc(C(F)(F)F)nn5)cc4=O)cc31)C1CCC(C2)N1 (centres unmarked) [Example 3, 1-(5-Methyl-5,6,7,8,9,10-hexahydro-7,10-iminocyclohept[b]indol-3-yl)-4-(6-(trifluoromethyl)pyridazin-3-yl)pyridin-2(1H)-one hydrochloride] | 235 to 245 °C | 24.4 nM | – | – |
| Cl.O=c1cc(OCc2ccccc2)ccn1-c1ccc2c3c([nH]c2c1)CC1CCC3N1 (single isomer, unassigned; enantiomer a) [Example 21, (+)-4-(Benzyloxy)-1-(5,6,7,8,9,10-hexahydro-7,10-iminocyclohept[b]indol-3-yl)pyridin-2(1H)-one hydrochloride (Enantiomer A)] | 211 to 212 °C | – | 39 nM | – |
| Cn1c2c(c3ccc(-n4ccc(-c5ccc(C(F)(F)F)nc5)cc4=O)cc31)C1CCC(C2)N1 (centres unmarked) (as salt: hydrochloride) [Example 5, 1-(5-Methyl-5,6,7,8,9,10-hexahydro-7,10-iminocyclohept[b]indol-3-yl)-4-(6-(trifluoromethyl)pyridin-3-yl)pyridin-2(1H)-one dihydrochloride] | 228 to 233 °C | – | – | – |
| Cn1c2c(c3ccc(-n4ccc(OCc5ccc(F)cn5)cc4=O)cc31)C1CCC(C2)N1 (centres unmarked) (as salt: hydrochloride) [Example 6, 4-((5-Fluoropyridin-2-yl)methoxy)-1-(5-methyl-5,6,7,8,9,10-hexahydro-7,10-iminocyclohept[b]indol-3-yl)pyridin-2(1H)-one dihydrochloride] | 180 to 190 °C | – | – | – |
| CC(=O)N1C2CCC1c1c(n(C)c3cc(-n4ccc(OCc5ccc(F)cn5)cc4=O)ccc13)C2 (single isomer, unassigned; enantiomer a) [Example 29, 1-(11-Acetyl-5-methyl-5,6,7,8,9,10-hexahydro-7,10-iminocyclohept[b]indol-3-yl)-4-((5-Fluoropyridin-2-yl)methoxy)pyridin-2(1H)-one (Enantiomer A)] | – | – | 75 nM | – |
| Cn1c2c(c3ccc(-n4ccc(OCc5ccccc5)cc4=O)nc31)C1CCC(C2)N1 (centres unmarked) [Example 39, 4-(Benzyloxy)-1-(10-methyl-5,6,7,8,9,10-hexahydro-5,8-iminocyclohepta[4,5]pyrrolo[2,3-b]pyridin-2-yl)pyridin-2(1H)-one hydrochloride] | – | 21 nM | – | – |
| CC(C)N1C2CCC1c1c(n(C)c3cc(-n4ccc(OCc5ccccc5)cc4=O)ccc13)C2 (centres unmarked) [Example 28, 4-(Benzyloxy)-1-(11-isopropyl-5-methyl-5,6,7,8,9,10-hexahydro-7,10-iminocyclohept[b]indol-3-yl)pyridin-2(1H)-one hydrochloride] | – | 12 nM | – | – |
| Cn1c2c(c3ccc(-n4ccc(OCc5ccccc5)cc4=O)cc31)C1CCCC(C2)N1 (centres unmarked) [Example 12, 4-(Benzyloxy)-1-(5-methyl-6,7,8,9,10,11-hexahydro-7,11-imino-5H-cyclooct[b]indol-3-yl)pyridin-2(1H)-one hydrochloride] | – | 9.3 nM | – | – |
| Cn1c2c(c3ccc(-n4ccc(OCc5ccc(C(F)(F)F)nc5)cc4=O)cc31)C1CCC(C2)N1 (single isomer, unassigned; enantiomer b) [Example 38, 1-(5-Methyl-5,6,7,8,9,10-hexahydro-7,10-iminocyclohept[b]indol-3-yl)-4-((6-(trifluoromethyl)pyridin-3-yl)methoxy)pyridin-2(1H)-one hydrochloride (Enantiomer B)] | – | – | 12 nM | – |
| Cn1c2c(c3ccc(-n4ccc(OCc5ccc(Cl)cc5Cl)cc4=O)nc31)C1CCC(C2)N1 (centres unmarked) [Example 48, 4-(2,4-Dichlorobenzyloxy)-1-(10-methyl-5,6,7,8,9,10-hexahydro-5,8-iminocyclohepta[4,5]pyrrolo[2,3-b]pyridin-2-yl)pyridin-2(1H)-one hydrochloride] | – | 28 nM | – | – |
| Cn1c2c(c3ccc(N4CCN(CCc5ccccc5)CC4=O)cc31)C1CCC(C2)N1 (single isomer, unassigned; enantiomer b) [Example 33, 1-(5-Methyl-5,6,7,8,9,10-hexahydro-7,10-iminocyclohept[b]indol-3-yl)-4-phenethylpiperazin-2-one dihydrochloride (Enantiomer B)] | – | – | 17 nM | – |
| Cn1c2c(c3ccc(-n4ccc(OCc5ccccc5)cc4=O)cc31)C1CCC(C2)N1 (single isomer, unassigned; enantiomer b) [Example 15, 4-(Benzyloxy)-1-(5-methyl-5,6,7,8,9,10-hexahydro-7,10-iminocyclohept[b]indol-3-yl)pyridin-2(1H)-one hydrochloride (Enantiomer B)] | – | – | 7.8 nM | – |
| Cn1c2c(c3ccc(N4CCN(CCc5ccccc5)CC4=O)cc31)C1CCC(C2)N1 (single isomer, unassigned; enantiomer a) [Example 34, 1-(5-Methyl-5,6,7,8,9,10-hexahydro-7,10-iminocyclohept[b]indol-3-yl)-4-phenethylpiperazin-2-one dihydrochloride (Enantiomer A)] | – | – | – | inhibition at 1 µM ([1]; @ 1 uM test compound, read-out: MCH-1 percent inhibition of control radioligand specific binding): 68% |
| CC(=O)N1C2CCC1c1c([nH]c3cc(-n4ccc(OCc5ccccc5)cc4=O)ccc13)C2 (single isomer, unassigned; enantiomer a) (as salt: hydrochloride) [Example 30, 1-(11-Acetyl-5,6,7,8,9,10-hexahydro-7,10-iminocyclohept[b]indol-3-yl)-4-(benzyloxy)pyridin-2(1H)-one hydrochloride (Enantiomer A)] | 140 to 170 °C | – | – | – |
| Cn1c2c(c3ccc(-n4ccc(OCc5ccccc5)cc4=O)cc31)C1CCC(C2)N1 (single isomer, unassigned; enantiomer a) [Example 14, 4-(Benzyloxy)-1-(5-methyl-5,6,7,8,9,10-hexahydro-7,10-iminocyclohept[b]indol-3-yl)pyridin-2(1H)-one hydrochloride (Enantiomer A)] | – | – | 15.8 nM | – |
| Cn1c2c(c3ccc(-n4ccc(-c5ccc(C(F)(F)F)cn5)cc4=O)cc31)C1CCC(C2)N1 (centres unmarked) [Example 4, 1-(5-Methyl-5,6,7,8,9,10-hexahydro-7,10-iminocyclohept[b]indol-3-yl)-4-(5-(trifluoromethyl)pyridin-2-yl)pyridin-2(1H)-one dihydrochloride] | – | 16.1 nM | – | – |
| CC(=O)N1C2CCC1c1c([nH]c3cc(-n4ccc(OCc5ccccc5)cc4=O)ccc13)C2 (single isomer, unassigned; enantiomer a) [Example 30, 1-(11-Acetyl-5,6,7,8,9,10-hexahydro-7,10-iminocyclohept[b]indol-3-yl)-4-(benzyloxy)pyridin-2(1H)-one hydrochloride (Enantiomer A)] | – | – | 97 nM | – |
| Cn1c2c(c3ccc(-n4ccc(-c5ccc(C(F)(F)F)nc5)cc4=O)nc31)C1CCC(C2)N1 (centres unmarked) [Example 44, 1-(10-Methyl-5,6,7,8,9,10-hexahydro-5,8-iminocyclohepta[4,5]pyrrolo[2,3-b]pyridin-2-yl)-4-(6-(trifluoromethyl)pyridin-3-yl)pyridin-2(1H)-one hydrochloride] | – | 110 nM | – | – |
